Source: US5049549A, “Rhodomycins with a modified carbohydrate unit” (Behringwerke Aktiengesellschaft, priority 1988, dated 1991)
Converted amounts (≈) assume the structure as drawn. Read-outs that look alike come from different tables or passages of the source.

Columns and labels:
L1210 cells = experiment: Proliferation test (MTT reduction), L1210; type: cell-based
Method: (§1) L1210, A 549 or HT 29 in the exponential growth phase are incubated in a cell density of 5×10^3 cells/ml in RPMI 1640 medium in a 96-well microtest plate with various concentrations of the test substance at 37° C., 5% CO2 and 95% relative humidity for 72 h. Control experiments contain merely growth medium in place of test substance. Determinations in quadruplicate are made up for each test substance and for the control. After incubation for 65 h, 50 µl of an MTT solution (2.5 mg/ml in phosphate-buffered saline) are added. In the presence of live cells MTT is reduced to a dark-red insoluble formazan dyestuff. This reaction is complete after 7 h (L1210 cells) or after 24 h (A 549, HT 29 cells), and the supernatant medium is carefully aspirated off. The insoluble dyestuff is dissolved by addition of 100 µl of DMSO, and the extinction of the solution produced in this way is subsequently measured at a wavelength of 492 nm for each well in a 340 CC Multiscan Photometer from Flow.
(§2) The ratio of the extinctions with treated and untreated cells yields a dose-effect plot from which the concentration which just kills 50% of the cells (IC50) can be read off. The coefficient of variation for repeat tests is less than 15%.

L1210 leukemia cells = experiment: Cytotoxicity for L1210 leukemia cells (stem cell assay, SCA); type: cell-based; settings: Mus musculus
Method: The test was carried out in accordance with the methods described by Hamburger and Salmon, with the modifications described below.
Conditioned medium was replaced by McCoy 5A medium. As a consequence of the high cloning rate of the L1210 leukemia cells in soft agar, the number of tumor cells per plate was reduced to 5×10^2.
The cells were incubated with various concentrations of the test substance at 37° C. for 1 h. The cells were subsequently washed twice with McCoy 5A medium and subsequently plated out in a two-layer agar system as upper layer in accordance with the Hamburger and Salmon method.
Additional parallel experiments were carried out using a continuous incubation time, in which case various concentrations of the test substance were mixed with the upper agar layer before plating out of the cells.
The plates were incubated in an incubator with 5% CO2, 20% O2 and 95% relative humidity for 5-7 days. After this time, colonies with a diameter of 60 μm were counted using an invertoscope.
The results have been reported as the percentage of colonies in treated versus untreated groups. The coefficient of variation for repeat experiments was less than 15%.
The IC50 for continuous and one-hour incubation was determined from the dose-effect plot (Tab. 1).

A 549 cells = experiment: Proliferation test (MTT reduction), A549; type: cell-based
Method: as §1, §2

HT 29 cells = experiment: Proliferation test (MTT reduction), HT29; type: cell-based; settings: Homo sapiens, read-out: IC50 MTT assay HT29
Method: as §1, §2

patients = settings: cited from earlier work
[1] = L1210, 1 h, read-out: IC50 SCA 1 h
[2] = Mus musculus, L1210, 72 h; read-out: IC50 MTT assay L1210
[3] = L1210, 1 h incubation, read-out: IC50 SCA 1 h
[4] = Homo sapiens, A549, 72 h; read-out: IC50 MTT assay A549

Row | Compound | IC50 (L1210 cells; [2]) [µg/mL] | IC50 (A 549 cells; [4]) [µg/mL] | IC50 (HT 29 cells; HT-29, HT29, 72 h) [µg/mL] | IC50 (L1210 leukemia cells; [3]) [µg/mL] | also measured
1 | CC[C@@]1(O)C[C@H](O[C@H]2C[C@H](NC(=O)C(F)(F)F)[C@@H](N=[N+]=[N-])[C@H](C)O2)c2c(O)c3c(c(O)c2[C@H]1O)C(=O)c1cccc(O)c1C3=O [compound 17, 7-O-(4'-Azido-2',3',4',6'-tetradeoxy-3'-trifluoroacetamido-alpha-L-arabinohexopyranosyl)-β-rhodomycinone] | – | – | – | – | IC50 (L1210 cells; Mus musculus, L1210, 72 h, read-out: IC50 MTT assay L1210): 0.33 µg/mL (≈ 0.518 µM); IC50 (L1210 leukemia cells; [1]): 1.4 µg/mL (≈ 2.2 µM); IC50 (A 549 cells; Homo sapiens, A549, 72 h, read-out: IC50 MTT assay A549): 0.52 µg/mL (≈ 0.817 µM); IC50 (HT 29 cells; HT-29, 72 h): 0.34 µg/mL (≈ 0.534 µM)
2 | COc1cccc2c1C(=O)c1c(O)c3c(c(O)c1C2=O)C[C@@](O)(C(C)=O)C[C@@H]3O[C@H]1C[C@H](N)[C@H](O)[C@H](C)O1 [daunorubicin] | – | – | – | – | side effects of the treatment (patients; in vivo): damage to the circulatory system and symptoms characteristic thereof
3 | CC[C@@]1(O)C[C@H](O[C@H]2C[C@H](NC(=O)C(F)(F)F)[C@H](NC(=O)C(F)(F)F)[C@H](C)O2)c2c(O)c3c(c(O)c2[C@H]1O)C(=O)c1cccc(O)c1C3=O [compound 15, 7-O-(3',4'-bis-(trifluoroacetamido)-2',3',4',6'-tetradeoxy-alpha-L-lyxohexopyranosyl)-β-rhodomycinone] | 0.037 (≈ 0.0524 µM) | 0.059 (≈ 0.0835 µM) | 0.1 (≈ 0.142 µM) | 0.43 (≈ 0.609 µM) | –
4 | CC[C@@]1(O)C[C@H](O[C@H]2C[C@H](N=[N+]=[N-])[C@H](NC(=O)C(F)(F)F)[C@H](C)O2)c2c(O)c3c(c(O)c2[C@H]1O)C(=O)c1cccc(O)c1C3=O [compound 13, 7-O-(3'-Azido-2',3',4',6'-tetradeoxy-4'-trifluoroacetamido-alpha-L-lyxohexopyranosyl)-β-rhodomycinone] | 0.1 (≈ 0.157 µM) | 0.1 (≈ 0.157 µM) | 0.2 (≈ 0.314 µM) | 0.29 (≈ 0.456 µM) | –
5 | COc1cccc2c1C(=O)c1c(O)c3c(c(O)c1C2=O)C[C@@](O)(C(=O)CO)C[C@@H]3O[C@H]1C[C@H](N)[C@H](O)[C@H](C)O1 [Adriamycin, reference compound] | – | – | – | – | side effects of the treatment (patients; clinical use, specialist literature): damage to the circulatory system and symptoms characteristic thereof; IC50 (L1210 leukemia cells; [1]): 0.04 µg/mL (≈ 0.0736 µM); IC50 (L1210 leukemia cells; L1210, read-out: IC50 SCA cont.): 0.02 µg/mL (≈ 0.0368 µM)

More lines, main results first:

Row | IC50 (L1210 cells; [2]) [µg/mL] | IC50 (A 549 cells; [4]) [µg/mL] | IC50 (HT 29 cells; HT-29, HT29, 72 h) [µg/mL] | Compound | IC50 (L1210 leukemia cells; [3]) [µg/mL] | also measured
6 | 0.03 (≈ 0.0491 µM) | 0.027 (≈ 0.0442 µM) | 0.022 (≈ 0.036 µM) | CC[C@@]1(O)C[C@H](O[C@H]2C[C@H](N)[C@@H](NC(=O)C(F)(F)F)[C@H](C)O2)c2c(O)c3c(c(O)c2[C@H]1O)C(=O)c1cccc(O)c1C3=O [compound 12, 7-O-(3'-Amino-2',3',4',6'-tetradeoxy-4'-trifluoroacetamido-alpha-L-arabinohexopyranosyl)-β-rhodomycinone] | 0.44 (≈ 0.721 µM) | –
7 | 0.043 (≈ 0.0812 µM) | 0.14 (≈ 0.264 µM) | 0.043 (≈ 0.0812 µM) | CC[C@@]1(O)C[C@H](O[C@H]2C[C@H](O)[C@H](N)[C@H](C)O2)c2c(O)c3c(c(O)c2[C@H]1O)C(=O)c1cccc(OC)c1C3=O [compound 8] | – | –
8 | 0.039 (≈ 0.0738 µM) | 0.095 (≈ 0.18 µM) | 0.033 (≈ 0.0624 µM) | CC[C@@]1(O)C[C@H](O[C@H]2C[C@H](N)[C@H](N)[C@H](C)O2)c2c(O)c3c(c(O)c2[C@H]1O)C(=O)c1cccc(OC)c1C3=O [compound 10, 4-O-Methyl-7-O-(3',4'-diamino-2',3',4',6'-tetradeoxy-alpha-L-lyxohexopyranosyl)-β-rhodomycinone] | – | –
9 | 0.01 (≈ 0.0194 µM) | 0.04 (≈ 0.0777 µM) | 0.069 (≈ 0.134 µM) | CC[C@@]1(O)C[C@H](O[C@H]2C[C@H](N)[C@H](N)[C@H](C)O2)c2c(O)c3c(c(O)c2[C@H]1O)C(=O)c1cccc(O)c1C3=O [compound 16, 7-O-(3',4'-Diamino-2',3',4',6'-tetradeoxy-alpha-L-lyxohexo-pyranosyl)-β-rhodomycinone] | 0.069 (≈ 0.134 µM) | –
